The source made the active and inactive calls. A value given as a limit tells only on which side of the number the result lay.

A short description of assay [1]: THP-1 cell cytotoxicity, dose response, cytotoxicity control for Vif-APOBEC3G degradation inhibitor project, THP-1 cells (AID 1117359). Particulars: Human immunodeficiency virus 1, THP-1. It counts as functional.
The subject of another assay is Vero. Put plainly: cells. It counts as functional. Particulars: Chlorocebus sabaeus.
The target of the next assay is T1, Protein skinhead-1 (Caenorhabditis elegans, UniProt P34707).
T1 sequence (P34707 whole entry): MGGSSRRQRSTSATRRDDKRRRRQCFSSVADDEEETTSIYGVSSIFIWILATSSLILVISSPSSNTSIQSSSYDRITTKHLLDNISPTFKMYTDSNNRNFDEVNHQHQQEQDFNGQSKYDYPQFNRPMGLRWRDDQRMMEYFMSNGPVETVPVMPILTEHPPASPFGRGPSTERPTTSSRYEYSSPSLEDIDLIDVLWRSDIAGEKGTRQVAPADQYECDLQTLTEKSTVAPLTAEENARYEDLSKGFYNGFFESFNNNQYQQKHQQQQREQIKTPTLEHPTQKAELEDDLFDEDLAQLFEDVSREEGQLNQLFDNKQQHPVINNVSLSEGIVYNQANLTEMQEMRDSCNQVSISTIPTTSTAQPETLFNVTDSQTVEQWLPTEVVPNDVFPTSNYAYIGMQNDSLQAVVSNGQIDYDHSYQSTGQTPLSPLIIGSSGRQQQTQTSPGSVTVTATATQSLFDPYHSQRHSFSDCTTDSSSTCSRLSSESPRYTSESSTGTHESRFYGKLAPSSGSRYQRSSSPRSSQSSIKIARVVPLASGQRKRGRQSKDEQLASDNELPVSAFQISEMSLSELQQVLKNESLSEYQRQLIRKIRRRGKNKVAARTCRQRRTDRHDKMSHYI
The class given is functional.

A short description of assay [2]: cytotoxicity toward NIH3T3 fibroblasts, dose response, counter-screen, cell-based, ATP luminescence, mouse fibroblasts (AID 2010).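 Note: cells exposed to compound for about 90 hours before reading.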 The class given is functional. (Counterscreens check selectivity or assay interference.)
Assay [3] concerns the target Induced myeloid leukemia cell differentiation protein Mcl-1 (Homo sapiens, UniProt Q07820). The class given is functional.
Assay [4] is described as follows: inhibitors of intracellular T. cruzi replication, confirmation, NIH3T3 host cells, beta-gal luminescence (AID 2044).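 Note: intracellular parasites grown in NIH/3T3 mouse fibroblasts as host cells; luminescent beta-galactosidase reporter signal from transgenic T. cruzi replicating inside host cells; inhibitors lower the luminescence signal.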 It counts as functional, cell-based.
Assay [5] deals with T2, Heat shock factor protein 1 (Mus musculus, UniProt P38532).
T2 sequence (P38532 whole entry): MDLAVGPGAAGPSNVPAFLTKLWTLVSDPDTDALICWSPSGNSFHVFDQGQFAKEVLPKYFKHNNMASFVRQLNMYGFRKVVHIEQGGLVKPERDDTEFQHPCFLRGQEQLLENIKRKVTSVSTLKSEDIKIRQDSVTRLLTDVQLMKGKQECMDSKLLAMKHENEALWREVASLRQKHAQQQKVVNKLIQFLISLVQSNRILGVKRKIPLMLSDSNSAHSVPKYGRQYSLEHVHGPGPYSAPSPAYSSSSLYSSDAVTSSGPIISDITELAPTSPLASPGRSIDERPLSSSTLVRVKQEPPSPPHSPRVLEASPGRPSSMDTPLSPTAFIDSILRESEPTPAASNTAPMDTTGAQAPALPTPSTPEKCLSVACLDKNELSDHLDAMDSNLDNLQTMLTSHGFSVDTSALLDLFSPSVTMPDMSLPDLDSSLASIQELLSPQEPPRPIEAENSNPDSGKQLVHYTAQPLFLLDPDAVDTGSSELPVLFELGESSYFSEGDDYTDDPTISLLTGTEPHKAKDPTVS
Put plainly: HSF1 potentiators in luciferase reporter cells, confirmation, cell-based, NIH3T3, luminescence, dose retest (AID 435004).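 Note: stress induced by proteasome inhibitor MG132 added 30 min after compound; luciferase reporter driven by HSF1 response element in NIH3T3 cells; actives raise luminescence as potentiators of the MG132 stress response.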 It counts as functional. (In general: Reporter assays use an easily measured gene product as a stand-in for the process of interest.)

The nature of assay [6]: Luminescence Cell-Based Dose Retest to Confirm Inhibitors of Cancer Stem Cells. [Related pubchem assays (depositor defined):AID2717, AID2721]. The class given is functional. Conditions: Homo sapiens.
In assay [7] the target is T3, Fatty acid synthase (Homo sapiens, UniProt P49327). Put plainly: FAS thioesterase domain inhibitors, dose response, biochemical, endpoint fluorescence intensity, uHTS hits (AID 624327).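 Note: fluorescence from hydrolysis of an O-methyl fluorescein acyl ester substrate by the enzyme.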 It counts as functional.
T3 sequence (P49327 whole entry, the tested form may be a part): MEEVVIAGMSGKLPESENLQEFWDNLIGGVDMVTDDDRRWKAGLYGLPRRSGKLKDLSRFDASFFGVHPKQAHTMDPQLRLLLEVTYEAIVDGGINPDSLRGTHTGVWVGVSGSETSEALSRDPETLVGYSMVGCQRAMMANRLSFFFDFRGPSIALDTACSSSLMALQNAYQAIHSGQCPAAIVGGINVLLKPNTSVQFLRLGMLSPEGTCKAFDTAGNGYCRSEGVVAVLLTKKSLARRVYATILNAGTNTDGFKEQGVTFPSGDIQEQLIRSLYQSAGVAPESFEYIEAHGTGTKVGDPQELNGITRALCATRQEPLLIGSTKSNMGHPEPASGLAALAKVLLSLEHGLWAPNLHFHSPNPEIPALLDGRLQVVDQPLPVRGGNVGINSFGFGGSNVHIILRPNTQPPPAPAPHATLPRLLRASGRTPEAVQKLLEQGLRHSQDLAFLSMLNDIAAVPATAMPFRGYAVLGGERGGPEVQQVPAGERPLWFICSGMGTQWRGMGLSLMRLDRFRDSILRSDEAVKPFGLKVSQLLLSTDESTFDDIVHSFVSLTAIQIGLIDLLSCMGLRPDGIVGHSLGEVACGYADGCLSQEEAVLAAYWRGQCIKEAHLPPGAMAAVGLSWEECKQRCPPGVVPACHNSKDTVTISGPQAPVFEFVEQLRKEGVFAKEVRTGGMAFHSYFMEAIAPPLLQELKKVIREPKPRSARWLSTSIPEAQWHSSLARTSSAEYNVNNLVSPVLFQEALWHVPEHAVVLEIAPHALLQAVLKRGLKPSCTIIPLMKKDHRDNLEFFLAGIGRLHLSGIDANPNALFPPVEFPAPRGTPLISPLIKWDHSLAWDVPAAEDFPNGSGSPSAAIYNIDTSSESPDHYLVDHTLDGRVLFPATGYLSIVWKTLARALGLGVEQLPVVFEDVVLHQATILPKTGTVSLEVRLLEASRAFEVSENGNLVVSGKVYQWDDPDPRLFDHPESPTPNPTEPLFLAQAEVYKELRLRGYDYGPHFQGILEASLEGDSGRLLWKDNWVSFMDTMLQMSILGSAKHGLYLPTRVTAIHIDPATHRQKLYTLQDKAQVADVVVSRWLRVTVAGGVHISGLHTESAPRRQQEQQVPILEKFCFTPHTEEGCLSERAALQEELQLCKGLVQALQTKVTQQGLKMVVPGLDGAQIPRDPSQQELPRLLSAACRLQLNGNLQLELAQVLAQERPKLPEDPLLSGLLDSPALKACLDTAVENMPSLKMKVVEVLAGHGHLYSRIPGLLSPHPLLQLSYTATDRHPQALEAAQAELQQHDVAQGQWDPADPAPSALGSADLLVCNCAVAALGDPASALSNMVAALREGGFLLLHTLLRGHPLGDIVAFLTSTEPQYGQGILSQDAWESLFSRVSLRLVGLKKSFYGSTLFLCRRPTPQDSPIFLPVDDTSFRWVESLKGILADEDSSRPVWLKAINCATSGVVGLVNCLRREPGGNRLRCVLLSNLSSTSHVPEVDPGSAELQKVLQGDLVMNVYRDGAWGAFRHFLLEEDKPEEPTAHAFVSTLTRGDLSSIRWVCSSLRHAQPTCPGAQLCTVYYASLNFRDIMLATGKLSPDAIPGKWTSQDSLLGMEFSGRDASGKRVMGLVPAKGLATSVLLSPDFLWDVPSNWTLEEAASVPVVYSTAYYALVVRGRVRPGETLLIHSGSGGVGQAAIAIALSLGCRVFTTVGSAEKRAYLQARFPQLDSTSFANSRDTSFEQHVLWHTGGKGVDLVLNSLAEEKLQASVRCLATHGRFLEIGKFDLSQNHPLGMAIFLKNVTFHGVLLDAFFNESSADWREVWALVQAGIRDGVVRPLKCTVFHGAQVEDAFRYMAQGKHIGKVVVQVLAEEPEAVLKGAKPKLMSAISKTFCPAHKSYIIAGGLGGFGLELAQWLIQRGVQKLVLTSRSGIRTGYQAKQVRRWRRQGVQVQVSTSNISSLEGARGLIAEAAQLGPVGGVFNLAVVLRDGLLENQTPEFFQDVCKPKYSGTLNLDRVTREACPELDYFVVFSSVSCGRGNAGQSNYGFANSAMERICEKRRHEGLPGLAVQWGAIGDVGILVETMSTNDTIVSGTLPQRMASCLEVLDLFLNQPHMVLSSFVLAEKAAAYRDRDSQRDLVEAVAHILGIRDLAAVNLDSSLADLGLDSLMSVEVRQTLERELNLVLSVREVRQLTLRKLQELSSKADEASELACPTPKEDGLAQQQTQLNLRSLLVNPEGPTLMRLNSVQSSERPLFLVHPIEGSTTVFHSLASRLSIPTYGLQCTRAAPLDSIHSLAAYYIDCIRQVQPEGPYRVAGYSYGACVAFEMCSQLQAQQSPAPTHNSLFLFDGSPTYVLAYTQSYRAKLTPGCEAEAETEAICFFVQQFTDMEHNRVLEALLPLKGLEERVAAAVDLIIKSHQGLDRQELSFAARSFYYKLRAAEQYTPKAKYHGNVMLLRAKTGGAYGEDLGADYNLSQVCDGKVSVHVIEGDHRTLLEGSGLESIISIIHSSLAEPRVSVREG
Assay [8] deals with T3, Fatty acid synthase. Put plainly: FAS thioesterase domain inhibitors, dose response, biochemical, kinetic fluorescence intensity (AID 624326).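 Note: rate of fluorescence rise from hydrolysis of a fluorogenic O-methyl fluorescein ester substrate.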 The class given is functional.
A short description of assay [9]: cytotoxicity in HEK-293T cells, dose response, cytotoxicity control for TCR NF-kB inhibitor project, luminescence, T-cell screen hits (AID 489026).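 Note: cells exposed to compound about 14 hours before the viability readout.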 The class given is functional, cell-based.
In assay [10] the target is T4, Corticotropin-releasing factor receptor 2/Corticotropin-releasing factor-binding protein (Homo sapiens, UniProt P24387+Q13324).
T4 sequence (Q13324 whole entry): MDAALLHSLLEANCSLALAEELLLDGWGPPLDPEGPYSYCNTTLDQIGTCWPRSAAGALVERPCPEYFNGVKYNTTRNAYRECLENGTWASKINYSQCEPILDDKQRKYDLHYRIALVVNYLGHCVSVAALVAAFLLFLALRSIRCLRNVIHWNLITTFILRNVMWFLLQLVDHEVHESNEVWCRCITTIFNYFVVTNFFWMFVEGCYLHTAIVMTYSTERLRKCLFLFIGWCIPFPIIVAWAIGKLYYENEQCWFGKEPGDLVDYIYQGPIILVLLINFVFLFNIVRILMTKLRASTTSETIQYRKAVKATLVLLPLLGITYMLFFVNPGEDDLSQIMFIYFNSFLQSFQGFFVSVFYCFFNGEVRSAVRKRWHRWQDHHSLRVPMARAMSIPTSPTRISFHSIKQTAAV
T4 sequence (P24387 whole entry): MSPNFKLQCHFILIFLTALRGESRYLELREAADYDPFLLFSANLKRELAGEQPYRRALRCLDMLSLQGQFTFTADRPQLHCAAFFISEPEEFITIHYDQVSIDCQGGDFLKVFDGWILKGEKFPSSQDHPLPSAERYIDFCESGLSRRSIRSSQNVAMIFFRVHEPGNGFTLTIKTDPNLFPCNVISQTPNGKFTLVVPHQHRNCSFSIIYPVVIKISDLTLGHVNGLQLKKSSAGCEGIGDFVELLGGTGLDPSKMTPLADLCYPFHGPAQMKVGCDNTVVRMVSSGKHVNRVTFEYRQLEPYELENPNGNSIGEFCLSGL
Kind of assay: Dose Response confirmation of uHTS hits for small molecule antagonists of the CRF-binding protein and CRF-R2 receptor complex. Particulars: read-out: IC50_Mean. It counts as functional.

In assay [11] the target is T4, Corticotropin-releasing factor receptor 2/Corticotropin-releasing factor-binding protein. Kind of assay: activators of CRF receptor 2 with binding protein – uHTS hits, confirmation (AID 602473). The class given is functional. Particulars: read-out: EC50_Mean.
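Throughout, for AC50: cells exposed to compound for roughly 70 hours or longer before luminescence read.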

Chain of Induced myeloid leukemia cell differentiation protein Mcl-1 (Q07820 whole entry): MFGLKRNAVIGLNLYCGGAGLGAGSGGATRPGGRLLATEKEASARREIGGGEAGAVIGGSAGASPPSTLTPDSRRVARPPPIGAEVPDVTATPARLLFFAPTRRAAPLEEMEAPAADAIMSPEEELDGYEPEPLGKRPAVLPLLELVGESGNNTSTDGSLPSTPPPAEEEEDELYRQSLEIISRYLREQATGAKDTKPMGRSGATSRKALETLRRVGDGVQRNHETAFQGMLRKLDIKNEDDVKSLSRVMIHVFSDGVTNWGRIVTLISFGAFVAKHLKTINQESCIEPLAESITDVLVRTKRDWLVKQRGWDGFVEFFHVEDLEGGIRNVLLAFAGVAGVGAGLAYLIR

As for `CCc1ccc(N(C2C=CS(=O)(=O)C2)S(=O)(=O)c2ccc(C)cc2)cc1` (stereo not drawn), the CC50 (commonly the concentration that lowers cell viability or growth by half) in [1] was > 40 µM (active).
On to `CCC1CSC(Nc2ccc(C(=O)/C=C/c3cccc(C)c3)cc2)=N1` (stereo not drawn), for which, in the assay with Vero, the CC50 was > 25 µM (active). Besides, the IC50 is > 100 µM (inactive) at Protein skinhead-1 and 1.66 µM (active) in assay [3]. Further, the values for the EC50 in assay [2], in assay [4] and in assay [5] were > 60 µM (not active), 3.06 µM (active) and 12.9 µM (active), respectively. Besides, in [6], the AC50 – broadly, the concentration at which the activity in the assay is half-maximal – is 5.77 µM (active).
For `COc1ccc(CC(=O)N2CCCC(C)C2)cc1` (stereo not drawn), at Protein skinhead-1, the IC50 is > 100 µM (inactive).
As for `O=C(C1CCN(S(=O)(=O)c2c(Cl)cccc2Cl)CC1)N1CCCC1`, the IC50 on Protein skinhead-1 was > 100 µM (inactive).
As for `O=C(/C=C/c1cccc([N+](=O)[O-])c1)N1CCN(c2ccccc2F)CC1`, the values for the IC50 on Fatty acid synthase [7] and on Fatty acid synthase [8] were 11.6 µM (active) and 6.52 µM (active), respectively.
Take `CCN(CC)P(=S)(c1c(C)nc2ccccn12)c1c(C)nc2ccccn12`: the CC50 in [1] is 13.9 µM (active).
`COc1ccc(N(C(=O)CNC(=O)c2ccco2)C(C(=O)NC2CCCCC2)c2cccnc2)cc1` (stereo not drawn): the IC50 at Protein skinhead-1 was > 100 µM (inactive).
For the compound `COc1ccc(C(=O)c2ccc(N(C)C)cc2)c(OC)c1`, in assay [9], the IC50 was > 80 µM (inactive).
Consider `COc1ccc(Cc2nc(-c3ccc(Cl)cc3)no2)cc1`, for which the figures for the IC50 (on Protein skinhead-1; in assay [10]) were > 100 µM (inactive) and > 47.1 µM (inactive), respectively. Further, the EC50 in assay [11] is > 53 µM (inactive).

Source of the values: ChEMBL document CHEMBL1201862, “PubChem BioAssay data set” (2004).
